Data: ChEMBL document CHEMBL1201862, “PubChem BioAssay data set” (2004)
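Five compound concentrations were applied to cells in 96-well plates for 48 hours; endpoints were derived by simple linear interpolation of the resulting dose-response curve. At the GI50, growth is halved.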 Activity calls are given as the source filed them. No stated cut-off is given here; in the data, active = GI50 up to about 1.1 µM and inactive = higher.

Key:
Experiment in all cases: NCI-60 cell line screen, 48 h
UACC-62 = test system: UACC-62
HL-60 = test system: HL-60
A498 = test system: A498
CAKI-1 = test system: CAKI-1
SN12C = test system: SN12C
SF-539 = test system: SF-539
SK-MEL-5 = test system: SK-MEL-5
MCF7 = test system: MCF7
HT-29 = test system: HT-29
UACC-257 = test system: UACC-257
786-0 = test system: 786-0
MDA-MB-435 = test system: MDA-MB-435
COLO 205 = test system: COLO 205
OVCAR-8 = test system: OVCAR-8
LOX IMVI = test system: LOX IMVI
MDA-N = test system: MDA-N
HOP-62 = test system: HOP-62
UO-31 = test system: UO-31
SF-268 = test system: SF-268

Measured: GI50

COC(=O)[C@H](COC(=O)/C=C/c1ccc(OC(C)=O)c(OC(C)=O)c1)NC(=O)/C=C/c1ccc(OC(C)=O)c(OC(C)=O)c1
inactive: UACC-62 15 µM | HL-60 > 100 µM | A498 39.3 µM | CAKI-1 14 µM | SN12C 18.8 µM | SF-539 45.1 µM | SK-MEL-5 16.4 µM | MCF7 38.4 µM | HT-29 22.3 µM | UACC-257 20.5 µM | 786-0 13.2 µM | MDA-MB-435 19.4 µM | COLO 205 18.5 µM | OVCAR-8 27.7 µM | LOX IMVI 18.4 µM | MDA-N 17.1 µM | HOP-62 17.2 µM

CCN(CC)CCOCC1CCCN2CCCCC12 (stereo unspecified)
inactive: UACC-62 > 100 µM | HL-60 > 100 µM | CAKI-1 > 100 µM | UO-31 > 100 µM | SN12C > 100 µM | SF-268 > 100 µM | SF-539 > 100 µM | SK-MEL-5 > 100 µM | MCF7 > 100 µM | HT-29 > 100 µM | UACC-257 > 100 µM | 786-0 > 100 µM | MDA-MB-435 > 100 µM | COLO 205 > 100 µM | OVCAR-8 > 100 µM | LOX IMVI > 100 µM | MDA-N > 100 µM | HOP-62 > 100 µM

CN(N=O)C(=N)NC(=O)c1ccccc1
inactive: UACC-62 56.5 µM | A498 > 100 µM | CAKI-1 > 100 µM | UO-31 > 100 µM | SF-268 > 100 µM | SF-539 62.1 µM | SK-MEL-5 45.4 µM | MCF7 54.7 µM | HT-29 > 100 µM | UACC-257 > 100 µM | 786-0 > 100 µM | MDA-MB-435 > 100 µM | COLO 205 > 100 µM | OVCAR-8 > 100 µM | LOX IMVI 49.2 µM | MDA-N > 100 µM | HOP-62 > 100 µM

O=c1cnn(C2OC(C(O)CO)C(O)C2O)c(=O)[nH]1 (stereo unspecified)
inactive: UACC-62 > 100 µM | HL-60 > 100 µM | CAKI-1 > 100 µM | UO-31 > 100 µM | SN12C > 100 µM | SF-268 > 100 µM | SF-539 > 100 µM | SK-MEL-5 > 100 µM | MCF7 > 100 µM | HT-29 > 100 µM | UACC-257 > 100 µM | 786-0 > 100 µM | MDA-MB-435 > 100 µM | COLO 205 > 100 µM | OVCAR-8 > 100 µM | LOX IMVI > 100 µM | MDA-N > 100 µM | HOP-62 > 100 µM

Cc1cc(C)c2c(O)c(S(=O)(=O)c3ccc(Cl)cc3)c(=O)oc2c1
inactive: UACC-62 58.6 µM | HL-60 52.8 µM | A498 > 100 µM | CAKI-1 72.6 µM | UO-31 50.8 µM | SN12C 65.3 µM | SF-268 40.2 µM | SF-539 > 100 µM | SK-MEL-5 60 µM | MCF7 50.6 µM | HT-29 95.3 µM | UACC-257 > 100 µM | 786-0 78.2 µM | MDA-MB-435 51.8 µM | COLO 205 > 100 µM | OVCAR-8 29.2 µM | MDA-N 79.1 µM | HOP-62 61.8 µM

COc1ccc(NCc2cccc3c(=O)c4ccc(Cl)cc4oc23)cc1
inactive: UACC-62 > 100 µM | A498 > 100 µM | CAKI-1 > 100 µM | UO-31 > 100 µM | SN12C > 100 µM | SF-539 > 100 µM | SK-MEL-5 > 100 µM | MCF7 > 100 µM | UACC-257 > 100 µM | 786-0 > 100 µM | MDA-MB-435 > 100 µM | COLO 205 > 100 µM | OVCAR-8 > 100 µM | LOX IMVI > 100 µM | MDA-N > 100 µM | HOP-62 > 100 µM

CC(C)(C)OC(=O)NC(Cc1ccc(OC(C)(C)C)cc1)C(=O)N[C@H]1CC[C@H](C(=O)O)C1 (stereo partly specified)
inactive: HL-60 > 100 µM | A498 > 100 µM | SN12C > 100 µM | SF-268 > 100 µM | SF-539 > 100 µM | SK-MEL-5 > 100 µM | MCF7 > 100 µM | HT-29 > 100 µM | UACC-257 > 100 µM | 786-0 > 100 µM | MDA-MB-435 > 100 µM | COLO 205 > 100 µM | OVCAR-8 > 100 µM | LOX IMVI > 100 µM | MDA-N > 100 µM | HOP-62 > 100 µM

O=C1/C(=C2/C(=O)N(c3ccccc3)c3ccccc32)Nc2ccccc21
inactive: UACC-62 > 100 µM | A498 24.5 µM | CAKI-1 45.5 µM | UO-31 43.7 µM | SN12C 59.8 µM | SF-268 36.4 µM | SK-MEL-5 22.3 µM | MCF7 11.9 µM | HT-29 59 µM | UACC-257 37.4 µM | 786-0 15 µM | MDA-MB-435 66.8 µM | COLO 205 24.7 µM | OVCAR-8 47.8 µM | LOX IMVI 78.3 µM | MDA-N > 100 µM | HOP-62 31.8 µM

CC1=[N+]([O-])C2(CCCC2)N(O)C1(C)C
inactive: UACC-62 > 100 µM | HL-60 > 100 µM | CAKI-1 > 100 µM | UO-31 > 100 µM | SN12C > 100 µM | SF-268 > 100 µM | SF-539 > 100 µM | SK-MEL-5 > 100 µM | MCF7 > 100 µM | HT-29 > 100 µM | UACC-257 > 100 µM | 786-0 > 100 µM | MDA-MB-435 > 100 µM | COLO 205 > 100 µM | OVCAR-8 > 100 µM | LOX IMVI > 100 µM | MDA-N > 100 µM | HOP-62 > 100 µM

CCOC(=O)C(=O)/C(=C/NC(=S)Nc1ccc(Cl)c(Cl)c1)C(=O)OCC
inactive: UACC-62 57.8 µM | HL-60 15.9 µM | CAKI-1 64.7 µM | UO-31 27.5 µM | SN12C 88.3 µM | SF-268 > 100 µM | SF-539 25.6 µM | SK-MEL-5 27.6 µM | MCF7 62.2 µM | HT-29 56.9 µM | UACC-257 60.3 µM | 786-0 89.7 µM | MDA-MB-435 72.1 µM | COLO 205 67.9 µM | OVCAR-8 > 100 µM | LOX IMVI > 100 µM | MDA-N 61.2 µM | HOP-62 > 100 µM

C=CCNC(=S)N/C=C(\C(=O)OCC)C(=O)C(=O)OCC
inactive: UACC-62 > 100 µM | HL-60 > 100 µM | CAKI-1 > 100 µM | UO-31 > 100 µM | SN12C > 100 µM | SF-268 > 100 µM | SF-539 > 100 µM | SK-MEL-5 > 100 µM | MCF7 > 100 µM | HT-29 > 100 µM | UACC-257 > 100 µM | 786-0 > 100 µM | MDA-MB-435 > 100 µM | COLO 205 > 100 µM | OVCAR-8 > 100 µM | LOX IMVI > 100 µM | MDA-N > 100 µM | HOP-62 > 100 µM

CCOC(=O)C1=CNC2=N[C@H]3CCCC[C@@H]3N2C1=O
inactive: UACC-62 > 100 µM | HL-60 > 100 µM | A498 > 100 µM | CAKI-1 > 100 µM | UO-31 > 100 µM | SN12C > 100 µM | SF-268 > 100 µM | SF-539 > 100 µM | SK-MEL-5 > 100 µM | MCF7 > 100 µM | HT-29 > 100 µM | UACC-257 > 100 µM | 786-0 > 100 µM | MDA-MB-435 > 100 µM | COLO 205 > 100 µM | OVCAR-8 > 100 µM | LOX IMVI > 100 µM | MDA-N > 100 µM

O=C(CCc1ccc(O)c(O)c1)c1ccc(O)c(O)c1O
inactive: UACC-62 25.9 µM | HL-60 11.5 µM | A498 17.9 µM | CAKI-1 17.8 µM | UO-31 52.4 µM | SN12C 15.3 µM | SF-268 16.6 µM | SF-539 15.5 µM | SK-MEL-5 17.3 µM | MCF7 19.1 µM | HT-29 26.7 µM | UACC-257 31.5 µM | 786-0 35.2 µM | MDA-MB-435 18.9 µM | COLO 205 17.7 µM | OVCAR-8 22.9 µM | LOX IMVI 27.7 µM | MDA-N 15.3 µM

O=C(Nc1ccc(F)cc1)c1cc2ccc(O)cc2o/c1=N\c1cccc(F)c1
inactive: UACC-62 42.8 µM | HL-60 27.3 µM | A498 43 µM | CAKI-1 32.7 µM | SN12C 38.9 µM | SF-268 43.1 µM | SF-539 52.7 µM | SK-MEL-5 16.1 µM | MCF7 32.8 µM | HT-29 > 100 µM | UACC-257 33.5 µM | 786-0 39.9 µM | MDA-MB-435 31.8 µM | COLO 205 > 100 µM | OVCAR-8 18.4 µM | LOX IMVI 25.4 µM | MDA-N 38.8 µM | HOP-62 42.5 µM

CCN(CC)c1ccc2cc(-c3nnc(-c4ccccc4O)o3)c(=O)oc2c1
inactive: UACC-62 10.6 µM | HL-60 4.56 µM | A498 13 µM | CAKI-1 11.5 µM | UO-31 10.4 µM | SF-268 6.92 µM | SF-539 8.18 µM | SK-MEL-5 6.93 µM | MCF7 10.3 µM | HT-29 11.7 µM | UACC-257 14.3 µM | 786-0 8.99 µM | MDA-MB-435 12.9 µM | COLO 205 7.66 µM | OVCAR-8 2.4 µM | LOX IMVI 6.73 µM | MDA-N 12.5 µM | HOP-62 5.51 µM

COc1cc2c(c(O)c1OC)C(O)C1CCC(=O)N1C2c1cccc2ccccc12 (stereo unspecified)
inactive: UACC-62 > 100 µM | HL-60 > 100 µM | A498 > 100 µM | CAKI-1 > 100 µM | UO-31 91.8 µM | SN12C > 100 µM | SF-268 > 100 µM | SF-539 > 100 µM | SK-MEL-5 > 100 µM | MCF7 > 100 µM | HT-29 > 100 µM | UACC-257 > 100 µM | 786-0 > 100 µM | MDA-MB-435 51.4 µM | COLO 205 > 100 µM | OVCAR-8 > 100 µM | MDA-N 76.4 µM | HOP-62 > 100 µM
